Earlier results in patent publication US9215889B2, “Steviol glycoside” (MORITA KAGAKU KOGYO CO., LTD., priority 2008, dated 2015).

Settings: for taste quality (in words): background comparison of ST and RA

Compound	taste quality (in words)	degree of sweetness (relative to sucrose)
C=C1C[C@@]23CC[C@H]4[C@@](C)(CCC[C@@]4(C)C(=O)O[C@@H]4O[C@H](CO)[C@@H](O)[C@H](O)[C@H]4O)[C@@H]2CC[C@]1(O[C@@H]1O[C@H](CO)[C@@H](O)[C@H](O[C@@H]2O[C@H](CO)[C@@H](O)[C@H](O)[C@H]2O)[C@H]1O[C@@H]1O[C@H](CO)[C@@H](O)[C@H](O)[C@H]1O)C3 [RA, Rebaudioside A]	good quality of sweetness	
C=C1C[C@@]23CC[C@H]4[C@@](C)(CCC[C@@]4(C)C(=O)O[C@@H]4O[C@H](CO)[C@@H](O)[C@H](O)[C@H]4O)[C@@H]2CC[C@]1(O[C@@H]1O[C@H](CO)[C@@H](O)[C@H](O)[C@H]1O[C@@H]1O[C@H](CO)[C@@H](O)[C@H](O)[C@H]1O)C3 [ST, Stevioside]	an unpleasant taste of bitterness remains in the mouth	300 times that of sucrose
